According to publication PMC10683472, “Deep Learning-Driven Library Design for the De Novo Discovery of Bioactive Thiopeptides” (ACS Central Science, 2023):
Where two headings read alike, the source gives them in different places. Where a SMILES comes first, the peptide text is derived from it. Where no end group is shown, it is not given here. pyridine‑bisazole = not defined here

T1: IRAK4 (Homo sapiens, UniProt Q9NWZ3)
T1 sequence (Q9NWZ3 1-460): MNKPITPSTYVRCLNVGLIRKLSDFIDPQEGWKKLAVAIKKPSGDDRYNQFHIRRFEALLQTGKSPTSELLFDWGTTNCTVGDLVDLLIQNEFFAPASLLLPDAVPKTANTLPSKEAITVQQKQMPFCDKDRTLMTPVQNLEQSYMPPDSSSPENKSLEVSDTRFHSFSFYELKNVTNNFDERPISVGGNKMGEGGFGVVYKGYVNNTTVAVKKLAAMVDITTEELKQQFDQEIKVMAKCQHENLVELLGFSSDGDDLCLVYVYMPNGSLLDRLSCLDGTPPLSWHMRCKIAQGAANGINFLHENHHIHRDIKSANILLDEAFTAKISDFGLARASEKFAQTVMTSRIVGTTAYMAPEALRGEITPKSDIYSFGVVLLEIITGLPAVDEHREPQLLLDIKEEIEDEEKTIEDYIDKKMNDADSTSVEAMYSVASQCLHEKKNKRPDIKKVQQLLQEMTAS

T2: Biotinylated IRAK4 (kinase domain, amino acids 1-460; NP_057207.2) (Homo sapiens, UniProt Q9NWZ3)
T2 construct: acids 1-460; NP_057207.2) was purchased from Carna Biosciences; purchased Carna Biosciences (Kobe, Japan)
T2 sequence (Q9NWZ3 1-460): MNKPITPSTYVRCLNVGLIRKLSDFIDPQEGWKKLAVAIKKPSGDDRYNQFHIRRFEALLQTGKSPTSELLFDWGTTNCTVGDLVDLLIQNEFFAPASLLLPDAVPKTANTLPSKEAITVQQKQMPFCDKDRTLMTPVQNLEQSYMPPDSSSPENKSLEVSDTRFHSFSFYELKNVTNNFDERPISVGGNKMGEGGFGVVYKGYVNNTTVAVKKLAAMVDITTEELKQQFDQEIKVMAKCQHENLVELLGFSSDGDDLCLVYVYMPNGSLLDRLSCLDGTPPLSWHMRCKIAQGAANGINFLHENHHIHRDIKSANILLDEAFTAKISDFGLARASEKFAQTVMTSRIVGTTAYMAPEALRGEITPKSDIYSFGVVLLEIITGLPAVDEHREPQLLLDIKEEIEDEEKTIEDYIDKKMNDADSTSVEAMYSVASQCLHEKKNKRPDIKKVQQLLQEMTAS

T3: interleukin-1 receptor-associated kinase 4 (UniProt Q9NWZ3 1-460)
T3 construct: interleukin-1 receptor-associated kinase 4 (IRAK4); Immobilised on magnetic beads in the mRNA display experiments; also called IRAK4; IRAK4 kinase
T3 sequence (looked up): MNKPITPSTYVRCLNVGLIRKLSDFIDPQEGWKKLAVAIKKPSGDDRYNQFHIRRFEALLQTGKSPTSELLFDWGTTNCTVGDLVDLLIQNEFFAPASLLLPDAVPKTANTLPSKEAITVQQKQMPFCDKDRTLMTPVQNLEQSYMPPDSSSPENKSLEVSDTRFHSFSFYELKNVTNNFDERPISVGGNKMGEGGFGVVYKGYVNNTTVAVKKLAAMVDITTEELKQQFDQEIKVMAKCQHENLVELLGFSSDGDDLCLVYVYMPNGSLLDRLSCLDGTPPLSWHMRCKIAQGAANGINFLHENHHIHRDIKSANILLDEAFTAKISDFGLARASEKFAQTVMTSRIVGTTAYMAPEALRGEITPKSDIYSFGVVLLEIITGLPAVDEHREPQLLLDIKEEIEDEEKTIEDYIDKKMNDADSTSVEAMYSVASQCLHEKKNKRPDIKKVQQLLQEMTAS


Columns and labels:
IRAK4 [1] = target: T1, IRAK4; experiment: mRNA display affinity selection against IRAK4, NGS abundance; type: binding; design: acids 1-460; NP_057207.2) was purchased from Carna Biosciences; purchased Carna Biosciences (Kobe, Japan); conditions: IRAK4 selection, NGS abundance rank
[2] = target: T2, Biotinylated IRAK4 (kinase domain, amino acids 1-460; NP_057207.2); experiment: Surface plasmon resonance binding to IRAK4
Excerpt: Reagents were purchased from Nacalai Tesque, Wako Pure Chemical Industries, Sigma-Aldrich Japan, or TCI Chemicals and were used as received. Biotinylated IRAK4 (kinase domain, amino acids 1-460; NP_057207.2) was purchased from Carna Biosciences (Kobe, Japan). Recombinant human TLR10 Fc Chimera protein (extracellular domain, amino acid 20-576; Q9BXR5) was purchased from R&D system (#6619-TR-050). Anti-HA magnetic beads were from Pierce Thermo Fisher Scientific (#88836). Magnetic beads with immobilized streptavidin were from Invitrogen (Dynabeads Streptavidin C1, # 65001). Magnetic beads with immobilized streptavidin were from Invitrogen (Dynabeads Streptavidin M280, #11206D).
Protein purification and synthesis of Streptomyces lactacystinaeus tRNAGlu were done as previously described.1–3 Protein concentration measurements were carried out on a Nanodrop 2000c spectrophotometer (Thermo Scientific) equipped with a 5 mm pathlength quartz cuvette using extinction coefficient values calculated with ExPASy ProtParam tool (https://web.expasy.org/protparam).
Biochemical measurements (sections 2.10 – 2.14) were performed in triplicate or more. Most experiments were reproduced to an analogous outcome at least once. In the cases where the determination of biophysical parameters involved cell assay (CP50 and IC50), reported are standard errors of the fit; otherwise, error bars are standard deviations.
RNA extracted from the gel with 300 mM NaCl were collected by ethanol precipitation followed by centrifugation (15300 g for 15 min) and dissolved in water for storage. tRNAini was aminoacylated with eFx using biotin-Phe-CME as a substrate. tRNAini (25 µM) and eFx (25 µM) were incubated with biotin-Phe-CME (5 mM) in HEPES-KOH buffer (50 mM; pH 7.5) containing 600 mM MgCl2 on ice for 2 h. The reactions were stopped with the addition of 300 mM NaOAc (pH 5.2), and precipitated with ethanol. Precipitated RNA was recovered by centrifugation (15300 g for 15 min). The pellet was washed with 70% ethanol in water (v/v) containing 100 mM NaOAc (pH 5.2) and used in translation.
2.10. Surface plasmon resonance
Binding affinities between the thiopeptides and IRAK4/TLR10 were measured with a Biacore 8K instrument (GE Healthcare) at 25 °C. The assay buffer for IRAK4 binding analysis contained 50 mM Tris (pH 7.5), 150 mM NaCl, 10 mM MgCl2, 0.05% (v/v) tween-20 and 0.1% (v/v) DMSO. The […]
Biotinylated IRAK4 was immobilized on a Biacore CAP chip (GE Healthcare) to a surface density […]
step was allowed to proceed for 480 s. Kinetic parameters and affinities of the interaction were […]
provided by the manufacturer. The interaction sensorgrams were measured as single -cycle […]
Kinetic parameters and affinities of the
Evaluation Software v.3.0 (GE Healthcare).

[3] = tested on: HaloTag expressing HEK293H cells; experiment: Chloroalkane penetration assay (CAPA); conditions: 18 h, chloroalkane tag-containing derivatives IR1-ct and IR5-ct
Excerpt: The role of IRAK4 as a kinase acting downstream of TLR and interleukin-1 receptors to phosphorylate IRAK1 and transduce immunological signals is well-established.[37] […] Therefore, we investigated the inhibitory activity of thiopeptides IR1, 5, 8, and 11. […] We first prepared chloroalkane tag-containing derivatives, IR1-ct and IR5-ct (S.I. 5.3), and utilized them in a chloroalkane penetration assay[49] to test their cellular uptake. […]

[4] = tested on: lipopolysaccharide-induced NF-κB signaling in THP1-XBlue cells; experiment: NF-kB signaling pathway inhibition assay (SEAP reporter, LPS-stimulated); type: cell-based; conditions: THP1-XBlue monocytes, 6 h pre-treatment, LPS-EK 30 ng/mL, SEAP read 20 h after induction
Procedure: (§1) 2.13. NF-kB signaling pathway inhibition assay
(§2) THP-1 Cellular Assay. THP1-XBlue cells containing an NF-kB-inducible secreted embryonic alkaline phosphatase (SEAP) reporter gene (InvivoGen) were seeded to 96-well assay plates (10^5 cells/well) with RPMI 1640 culture medium containing 10% fetal calf serum. The cells were pre-treated with various concentration of analyte thiopeptide inhibitor in 0.1% DMSO and incubated at 37 °C for 6 h. LPS-EK (30 ng/mL, InvivoGen) was subsequently added to activate the NF-kB signalling for 20 h. To quantitate SEAP activity, supernatants were harvested (300 g, 5min) and mixed with Quanti-Blue (InvivoGen) detection reagent following the manufacturer’s instructions.
(§3) Cells were assayed with cell counting kit-8 in parallel to rule out potential cytotoxicity. The plates

IRAK4 [5] = target: T1, IRAK4; experiment: biochemical
THP1-XBlue cells = experiment: Cell viability with Cell Counting Kit-8
Procedure: as §1, §2, §3

IRAK4 [6] = target: T1, IRAK4; experiment: Single-round mRNA display binding assay (qPCR), IRAK4; design: acids 1-460; NP_057207.2) was purchased from Carna Biosciences; purchased Carna Biosciences (Kobe, Japan); conditions: ratio of cDNA recoveries (qPCR), IRAK4 pulldown over beads only, single-round selection
Serum stability assay = type: in vitro ADME; conditions: pH 7.6; human serum, 37 °C, LC/MS; read-out: serum stability τ1/2 (converted)
[7] = target: T3, interleukin-1 receptor-associated …; experiment: SPR; synthetic thiopeptides and target protein; conditions in S.I. 2.10 (not shown); conditions: both partners purified
[8] = target: T3, interleukin-1 receptor-associated …; experiment: cell-based or functional assay

Molecule	rank in pulldown(+) (IRAK4 [1])	rank in pulldown(–) (IRAK4 [1])	koff [2]	kon [2]	CP50 (midpoint internalization concentration) [3]	IC50 [4]	IC50 (IRAK4 [5])	cytotoxicity (Cell Counting Kit-8) (THP1-XBlue cells)	display P/N ratio (IRAK4 [6])	half-life at 10 µM (Serum stability assay)	koff ([2]; SPR, IRAK4, read-out: koff)	kon ([2]; SPR, IRAK4, read-out: kon)	cytotoxicity (Cell Counting Kit-8) (THP1-XBlue cells; at the tested concentrations)	Kd [7]	IC50, lipopolysaccharide-induced NF-κB signaling (secreted alkaline phosphatase reporter) in THP1-XBlue monocytes [8]
C=C1NC(=O)C(=CC)NC(=O)[C@H](Cc2c[nH]c3ccccc23)NC(=O)[C@H](Cc2c[nH]cn2)NC(=O)[C@H](Cc2c[nH]c3ccccc23)NC(=O)[C@H]([C@@H](C)O)NC(=O)[C@H]([C@@H](C)CC)NC(=O)[C@H](Cc2ccccc2)NC(=O)[C@H](CCC(N)=O)NC(=O)[C@H](CCCNC(=N)N)NC(=O)[C@H](CCCCN)NC(=O)[C@H](CCCC)NC(=O)[C@H](CO)NC(=O)[C@H](Cc2c[nH]c3ccccc23)NC(=O)c2ccc(-c3nc(C(=O)OC)cs3)nc2-c2csc1n2 [IR1] (HELM PEPTIDE1{W.S.[Nle].K.R.Q.F.I.T.W.H.W.[CC=C(N[*:1])C(=O)[*:2]]}|CHEM1{[C=C(N[*:2])c1nc(-c2nc(-c3nc(C(=O)OC)cs3)ccc2C(=O)[*:1])cs1]}$PEPTIDE1,CHEM1,1:R1-1:R1|PEPTIDE1,CHEM1,13:R2-1:R2$$$V2.0; bridges inferred)	3	1	0.00054 s⁻¹	2930 M⁻¹ s⁻¹	2.4 µM	7 µM	3.1 ± 0.3 µM	not cytotoxic	1829	3.9 ± 0.1 h	–	–	–	–	–
C=C1NC(=O)[C@H](CCCCN)NC(=O)[C@H](Cc2ccc(O)cc2)NC(=O)[C@H]([C@@H](C)CC)NC(=O)[C@H](CCCNC(=N)N)NC(=O)[C@H](CCCNC(=N)N)NC(=O)[C@H](CCCCN)NC(=O)[C@H](Cc2ccccc2)NC(=O)[C@H](CC(C)C)NC(=O)[C@H](CCSC)NC(=O)[C@H](CO)NC(=O)[C@H](Cc2c[nH]c3ccccc23)NC(=O)c2ccc(-c3nc(C(=O)OC)cs3)nc2-c2csc1n2 [IR5] (HELM PEPTIDE1{W.S.M.L.F.K.R.R.I.Y.K}|CHEM1{[C=C(N[*:2])c1nc(-c2nc(-c3nc(C(=O)OC)cs3)ccc2C(=O)[*:1])cs1]}$PEPTIDE1,CHEM1,1:R1-1:R1|PEPTIDE1,CHEM1,11:R2-1:R2$$$V2.0; bridges inferred)	1	2	–	–	14.8 µM	7.8 µM	5.1 ± 0.4 µM	–	376	1.3 ± 0.02 h	0.0037 s⁻¹	2.92e+06 M⁻¹ s⁻¹	not cytotoxic	–	–
SWSMLFKRRIYKSCSC (bridge (positions not given here) via pyridine‑bisazole; reading uncertain; also: macrocyclic lactazole-like thiopeptide with pyridine-bisazole moiety, places not given here, dehydroamino acids, places not given here) [thiopeptide IR5 (synthetic)]	–	–	–	–	–	–	–	–	–	–	–	–	–	0.0013 µM	7.8 µM
